Assay results published in ChEMBL document CHEMBL1122119.

Assays:
[1] = target: T1, Adenylate cyclase (Rattus norvegicus) (UniProt D4A3N4+P26770+Q04400+P26769+Q03343+P40146+Q8CFM9+P21932); assay: Ability (50 uM) to stimulate dopamine sensitive adenylate cyclase from rat corpus striatum in the presence of excess ATP; assay type: functional
[2] = target: T1, Adenylate cyclase (Rattus norvegicus); assay: Ability (250 uM) to stimulate dopamine sensitive adenylate cyclase from rat corpus striatum in the presence of excess ATP; assay type: functional

Cyclase stimulation [1] | Compound | Cyclase stimulation [2]
48% | CN1CCc2cccc3c2[C@H]1Cc1ccc(O)c(O)c1-3 | 
58% | NCCc1ccc(O)c(O)c1 | 
 | CN1CCc2cc(O)cc3c2[C@@H]1Cc1ccc(O)c(O)c1-3 | 9%
 | CN1CCc2cc(O)cc3c2[C@H]1Cc1ccc(O)c(O)c1-3 | 59%
